Measured values reported in patent EP0103381B1, “Substituted anthra(1,9-cd)pyrazol-6(2H)-ones” (WARNER-LAMBERT COMPANY, priority 1982, dated 1984).

What was measured:
Assay in all cases: agar plate paper-disc inhibition zone screening
Type in all cases: cell-based
[1] = test system: Aerobacter aerogenes; details: Klebsiella aerogenes, read-out: Inhibition Zone Diameter mm (Dose mg/ml) A. Aerogenes; for zone of inhibition at 3000 µg/mL: Dose 3.0 mg/ml; for zone of inhibition at 500 µg/mL: Dose 0.5 mg/ml
Method: (§1) The bacterial and yeast isolates are maintained in agar slants or in liquid media, hereby designated as inoculum media. The cultures are transferred at regular intervals in such media. (See Table for the corresponding inoculum media of each culture.) The organisms are generally transferred on to agar slants or liquid inoculum media and incubated overnight (18-20 hours): 37°C for the bacterial isolates and 28°C for the fungal cultures.
(§2) The microbial cells from the overnight agar slants are then scraped off and suspended in saline solution (0.85% NaCI). The microbial concentrations are adjusted to a light transmittancy of 20-35%, Junior Coleman Spectrophotometer (555 M). For the organisms that are maintained in liquid media, an aliquot of the culture suspension is simply diluted with saline to 20-35% light transmittancy.
(§3) The above microbial suspension serve as inocula for the assay plates. Thus, 0.16-10 ml (see Table for exact amount) are used to inoculate 100 ml of the molten-agar assay medium.
(§4) Stainless steel frames, 12.3 x 25.3 cm (ID) and glass plates, 15.3 x 31.7 cm are used to make the test trays. The frames are attached to the plates with tape at each end and the inner edges sealed with 2% agar. Twenty five ml of inoculated assay medium is spread evenly on each tray and allowed to solidify. The trays are covered, inverted, and refrigerated until used.
(§5) The compounds or samples to be tested are dissolved in suitable solvents, e.g., alcohols, dimethylsulfoxide, or N,N-dimethylformamide. The samples are generally dissolved so that the final concentration of the solvent is <10%.^* The compounds are tested at different concentrations: 3,000; 1,000; 500; 100; and 10 mcg/ml. Paper discs (12.7 mm diameter) are placed on the agar trays with forceps, then 0.08 ml of the dissolved compound is pipetted onto each disc using a 0.2 ml pipette.
(§6) The disked agar trays are incubated overnight (18-20 hours) at 37°C for the bacterial cultures and 28°C for the yeasts. The Penicillium avellaneium tray is incubated for at least […] since it is a slower- growing organism.
(§7) Active compounds show a zone of inhibition around the disc. The diameter of the zone is measured in mm. The zone diameter of active compounds ranges from a minimum of 13.5 mm to as high as 60 mm. The size of the zone diameter generally reflects the activity of the compound: the larger the zone the greater the activity.

[2] = test system: Bacillus subtilis; details: read-out: Inhibition Zone Diameter mm (Dose mg/ml) B. Subtilis; for zone of inhibition at 3000 µg/mL: Dose 3.0 mg/ml; for zone of inhibition at 1000 µg/mL: Dose 1.0 mg/ml; for zone of inhibition at 100 µg/mL: Dose 0.1 mg/ml; for zone of inhibition at 500 µg/mL: Dose 0.5 mg/ml
Method: as §1, §2, §3, §4, §5, §6, §7

[3] = test system: Escherichia coli; details: read-out: Inhibition Zone Diameter mm (Dose mg/ml) E. Coli; for zone of inhibition at 3000 µg/mL: Dose 3.0 mg/ml; for zone of inhibition at 1000 µg/mL: Dose 1.0 mg/ml; for zone of inhibition at 500 µg/mL: Dose 0.5 mg/ml
Method: as §1, §2, §3, §4, §5, §6, §7

[4] = test system: Streptococcus faecalis; details: Enterococcus faecalis, read-out: Inhibition Zone Diameter mm (Dose mg/ml) S. Faecalis; for zone of inhibition at 3000 µg/mL: Dose 3.0 mg/ml; for zone of inhibition at 1000 µg/mL: Dose 1.0 mg/ml
Method: as §1, §2, §3, §4, §5, §6, §7

[5] = test system: Penicillium avellaneum; details: Hamigera avellanea, read-out: Inhibition Zone Diameter mm (Dose mg/ml) P. Avellaneum; for zone of inhibition at 3000 µg/mL: Dose 3.0 mg/ml; for zone of inhibition at 500 µg/mL: Dose 0.5 mg/ml
Method: The Penicillium avellaneum is grown for six days, at 28°C, on an agar medium. This is to allow sporulation of the culture. The organism is then harvested by scraping off the cells from the agar surface (mycelia and spores) and suspending them in saline solution containing 0.05% Tween 80.
The suspension is adjusted to a light transmittancy of 20%. One ml of this suspension is used to inoculate 100 ml of the molten-agar assay medium.
as §4, §5, §6, §7

Structure (SMILES)	zone of inhibition at 3000 µg/mL [1]	zone of inhibition at 3000 µg/mL [2]	zone of inhibition at 3000 µg/mL [3]	zone of inhibition at 3000 µg/mL [4]	zone of inhibition at 3000 µg/mL [5]	zone of inhibition at 1000 µg/mL [3]	zone of inhibition at 500 µg/mL [5]	zone of inhibition at 500 µg/mL [3]	zone of inhibition at 1000 µg/mL [2]	zone of inhibition at 500 µg/mL [1]	zone of inhibition at 100 µg/mL [2]	zone of inhibition at 1000 µg/mL ([1]; Dose 1.0 mg/ml)	zone of inhibition at 500 µg/mL [2]	zone of inhibition at 1000 µg/mL [4]
CN(C)CCNCCn1nc2c3c(c(Cl)ccc31)C(=O)c1c(O)ccc(O)c1-2 [7,10-(OH)2; Cl*; (CH2)2NH(CH2)2NMe2, 5-Chloro-2-[2-[[2-(dimethylamino)ethyl]amino]ethyl]-7,10-dihydroxyanthra[1,9-cd]pyrazol-6(2H)-one]	0 mm	14 mm	0 mm	0 mm	0 mm	–	–	–	–	–	–	–	–	–
CN(C)CCn1nc2c3c(c(Cl)ccc31)C(=O)c1c(O)ccc(O)c1-2 [7,10-(OH)2; Cl*; (CH2)2NMe2, 5-Chloro-2-[2-(dimethylamino)ethyl]-7,10-dihydroxyanthra[1,9-cd]pyrazol-6(2H)-one]	15 mm	0 mm	–	0 mm	–	14 mm	15 mm	–	–	–	–	–	–	–
CCN(CC)CC(O)Cn1nc2c3c(c(Cl)ccc31)C(=O)c1c(O)ccc(O)c1-2 (stereo not shown) [7,10-(OH)2; Cl*; CH2CHOHCH2NEt2, 5-Chloro-2-[3-(diethylamino)-2-hydroxypropyl]-7,10-dihydroxyanthra[1,9-cd]pyrazol-6(2H)-one]	0 mm	14 mm	–	14 mm	14 mm	–	–	14 mm	–	–	–	–	–	–
CN(CCO)CCn1nc2c3c(c(Cl)ccc31)C(=O)c1c(O)ccc(O)c1-2 [7,10-(OH)2; Cl*; Me | (CH2)2N (CH2)2OH, 5-Chloro-7,10-dihydroxy-2-[2-[(2-hydroxyethyl)methylamino]ethyl]anthra[1,9-cd]pyrazol-6(2H)-one]	0 mm	0 mm	14 mm	0 mm	0 mm	–	–	–	–	–	–	–	–	–
CCCCCCNc1ccc2c3c(nn2CCN(CC)CC)-c2ccccc2C(=O)c13 [Example 8, 2-[2-(Diethylamino)ethyl]-5-(hexylamino)anthra[1,9-cd]pyrazol-6(2H)-one]	0 mm	–	0 mm	0 mm	16 mm	–	–	–	16 mm	–	–	–	–	–
O=C1c2ccccc2-c2nn(CCO)c3ccc(NCCNCCO)c1c23 [Example 12, 2-(2-Hydroxyethyl)-5-[[2-[(2-hydroxyethyl)amino]ethyl]amino]anthra[1,9-cd]pyrazol-6(2H)-one]	–	–	14 mm	16 mm	0 mm	–	–	–	–	14 mm	14 mm	–	–	–
O=C1c2ccccc2-c2nn(CCO)c3ccc(NCCN4CCOCC4)c1c23 [Example 14, 2-(2-Hydroxyethyl)-5-[[2-(4-morpholinyl)ethyl]amino][1,9-cd]pyrazol-6(2H)-one]	0 mm	–	16 mm	0 mm	0 mm	–	–	–	16 mm	–	–	–	–	–
CCN(CC)CCCCNc1ccc2c3c(nn2CCO)-c2ccccc2C(=O)c13 [Example 16, 5-[[4-(Diethylamino)butyl]amino]-2-(2-hydroxyethyl)anthra[1,9-cd]pyrazol-6(2H)-one]	0 mm	–	0 mm	0 mm	0 mm	–	–	–	25 mm	–	–	–	–	–
CCN(CC)CCCCCCCNc1ccc2c3c(nn2CCO)-c2ccccc2C(=O)c13 [Example 17, 5-[[7-(Diethylamino)heptyl]amino]-2-(2-hydroxyethyl)anthra[1,9-cd]pyrazol-6(2H)-one]	0 mm	–	0 mm	0 mm	0 mm	–	–	–	20 mm	–	–	–	–	–
O=C1c2ccccc2-c2nn(CCNCCO)c3ccc(NCCO)c1c23 [Example 24, 5-[(2-Hydroxyethyl)amino]-2-[2-[(2-hydroxyethyl)amino]ethyl]anthra[1,9-cd]pyrazol-6(2H)-one]	–	–	–	–	0 mm	–	–	15 mm	–	–	–	14 mm	18 mm	14 mm
Cn1nc2c3c(c(NCCN)ccc31)C(=O)c1c(O)ccc(O)c1-2 [Example 40, 5-[(2-Aminoethyl)amino]-7,10-dihydroxy-2-methylanthra[1,9-cd]pyrazol-6(2H)-one]	14 mm	0 mm	14 mm	14 mm	0 mm	–	–	–	–	–	–	–	–	–
CCN(CC)CCn1nc2c3c(c(Cl)ccc31)C(=O)c1c(O)ccc(O)c1-2 [Example 49, 5-Chloro-2-[2-(diethylamino)ethyl]-7,1 0-dihydroxyanthra[1,9-cd] pyrazol-6(2H)-one]	0 mm	–	0 mm	0 mm	16 mm	–	–	–	14 mm	–	–	–	–	–
O=C1c2c(O)ccc(O)c2-c2nn(CCNCCO)c3ccc(NCCN4CCOCC4)c1c23 [Example 61, 7,10-Dihydroxy-2-[2-[(2-hydroxyethyl)amino]ethyl]-5-[[2-(4-morpholinyl)ethyl]amino]anthra[1,9-cd]pyrazol-6(2H)-one]	0 mm	–	14 mm	0 mm	0 mm	–	–	–	15 mm	–	–	–	–	–
NCCNc1ccc2c3c(nn2CCN)-c2c(O)ccc(O)c2C(=O)c13 [Example 72, 2-(2-Aminoethyl)-5-[(2-aminoethyl)amino]-7,10-dihydroxyanthra[1,9-cd]pyrazol-6(2H)-one]	14 mm	0 mm	0 mm	0 mm	0 mm	–	–	–	–	–	–	–	–	–
COCCn1nc2c3c(c(NCCN)ccc31)C(=O)c1c(O)ccc(O)c1-2 [Example 77, 5-[(2-Aminoethyl)amino]-7,10-dihydroxy-2-(2-methoxyethyl)anthra(1,9-cd]pyrazol-6(2H)-one]	14 mm	16 mm	16 mm	0 mm	0 mm	–	–	–	–	–	–	–	–	–
O=C1c2c(NCCNCCO)cccc2-c2nn(CCNCCO)c3cccc1c23 [Example 81, 2-[2-[(2-Hydroxyethyl)amino]lethyl]-7-[[2-[(2-hydroxyethyl)amino]ethyl]amino]anthra[1,9-cd]pyrazol-6(2H)-one]	–	–	–	0 mm	0 mm	20 mm	–	–	–	17 mm	–	–	16 mm	–
CCN(CC)CCn1nc2c3c(c(Cl)ccc31)C(=O)c1ccccc1-2 [H; Cl*; (CH2)2NEt2, 5-Chloro-2-[2-(diethylamino)ethyl]anthra[1,9-cd]pyrazol-6(2H)-one]	–	–	–	–	–	–	16 mm	14 mm	–	14 mm	16 mm	–	–	16 mm
